Source: US20220332706A1, “CRYSTALLINE FORMS OF A JAK2 INHIBITOR” (Impact Biomedicines, Inc., priority 2019, published 2022)
Values after ≈ are worked out from the molar mass of the structure shown. Read-outs that look alike come from different tables or passages of the source. Values belong to the compound of their own block, whether it stands above or below them.

How the values were obtained:
Type in all cases: physicochemical
[1] = Relative stability (competitive ripening) study of Forms A and B; settings: for Final Form Observed: seven days, suspension of ~10 mg Form A and ~10 mg Form B
Description: Saturated suspensions of Form A were prepared by stirring excess Form A in the specified solvent system. The suspension was stirred overnight at 25° C. A clarifying filtration was performed and the filtrate was added to a 2 mL vial containing ˜10 mg of Form A and ˜10 mg of Form B. The resulting suspensions were stirred at 25° C. for seven days, isolated, dried under vacuum for 45 minutes, and analyzed by FT-Raman.

[2] = Solubility assessment, visually estimated by dosing solvent aliquots into 10.0 mg API; settings: thermodynamic from solid
Description: Solubility was assessed in an array of diverse solvents in order to facilitate the selection of solvent systems and corresponding dosing strategies for the subsequent crystal-form screening experiments.

[3] = Moisture sorption/desorption isotherms (DVS); settings: 25° C., first sorption cycle 0 to 75% RH, desolvation with solvent exchange induced by water vapour
Description: Moisture sorption/desorption isotherms. All experiments were performed on a DVS-1 automated gravimetric vapour sorption analyser (Surface Measurement Systems Ltd., London, UK). The DVS measures the uptake and loss of vapour gravimetrically using a Cahn D200 recording ultra-microbalance with a mass resolution of ±0.1 μg. A controlled relative humidity is generated by mixing different proportions of dry and water saturated carrier gas streams (monitored by mass flow controllers). The temperature was maintained constant, ±0.1° C., by enclosing the entire system in a temperature-controlled incubator. A sample size around 10 mg was used. Prior to being exposed to any water vapour the samples were dried at 0% relative humidity (RH) to remove any surface water present and establish a dry, baseline mass. […] Two consecutive cycles were recorded. From the complete moisture sorption and desorption profile an isotherm was calculated using the DVS Advanced Analysis Suite v3.6. […]
DVS curves are carried out at 25° C. on hexafluoroisopropanol solvate (FIG. 18). After 6 hours under nitrogen a weight loss of 5% is recorded (a partial desolvation is observed with a pre-treatment at 25° C.). During the first sorption cycle, an important weight loss is recorded between 0 and 75% RH (around 30%). […]

[4] = Characterization of crystal forms: behaviour under ambient conditions

relative stability of hydrates ([1]; 25° C., over the entire water activity range): stable hydrate
Final Form Observed ([1]; Acetone:Water (83:17), water activity 0.75, 25 °C): Form A
Final Form Observed ([1]; Ethanol, water activity 0, 25 °C): Form A
Final Form Observed ([1]; Methanol:Water (73:27), water activity 0.5, 25 °C): Form A
Final Form Observed ([1]; Water, water activity 1, 25 °C): Form A
solubility ([2]; all other solvents evaluated (of 12; not DMSO, MeOH, water), organic solvent or mixture, in all other solvents evaluated, read-out: low solubility): ≤ 5000 µg/mL
solubility ([2]; organic solvent or mixture, DCM, 40° C., read-out: Solubility at 40° C.): < 5000 µg/mL
solubility ([2]; organic solvent or mixture, DCM, RT, read-out: Solubility at RT): < 5000 µg/mL
solubility ([2]; organic solvent or mixture, DMSO, RT, read-out: Solubility at RT): > 400000 µg/mL
solubility ([2]; organic solvent or mixture, EtOAc, 40° C., read-out: Solubility at 40° C.): < 5000 µg/mL
solubility ([2]; organic solvent or mixture, EtOAc, RT, read-out: Solubility at RT): < 5000 µg/mL
solubility ([2]; organic solvent or mixture, IPA, 40° C., read-out: Solubility at 40° C.): < 5000 µg/mL
solubility ([2]; organic solvent or mixture, IPA, RT, read-out: Solubility at RT): < 5000 µg/mL
solubility ([2]; organic solvent or mixture, IPA:water (9:1) v/v, 40° C., read-out: Solubility at 40° C.): > 5000 µg/mL
solubility ([2]; organic solvent or mixture, IPA:water (9:1) v/v, RT, read-out: Solubility at RT): < 5000 µg/mL
solubility ([2]; organic solvent or mixture, IPE, 40° C., read-out: Solubility at 40° C.): < 5000 µg/mL
solubility ([2]; organic solvent or mixture, IPE, RT, read-out: Solubility at RT): < 5000 µg/mL
solubility ([2]; organic solvent or mixture, MTBE, 40° C., read-out: Solubility at 40° C.): < 5000 µg/mL
solubility ([2]; organic solvent or mixture, MTBE, RT, read-out: Solubility at RT): < 5000 µg/mL
solubility ([2]; organic solvent or mixture, MeCN, 40° C., read-out: Solubility at 40° C.): < 5000 µg/mL
solubility ([2]; organic solvent or mixture, MeCN, RT, read-out: Solubility at RT): < 5000 µg/mL
solubility ([2]; organic solvent or mixture, MeOH, RT, read-out: Solubility at RT): > 400000 µg/mL
solubility ([2]; organic solvent or mixture, THF, 40° C., read-out: Solubility at 40° C.): < 5000 µg/mL
solubility ([2]; organic solvent or mixture, THF, RT, read-out: Solubility at RT): < 5000 µg/mL
solubility ([2]; organic solvent or mixture, Toluene, 40° C., read-out: Solubility at 40° C.): < 5000 µg/mL
solubility ([2]; organic solvent or mixture, Toluene, RT, read-out: Solubility at RT): < 5000 µg/mL
solubility ([2]; Water, RT, read-out: Solubility at RT): 100000 to 400000 µg/mL (≈ 191 to 762 mM)
solubility ([2]; in DMSO, MeOH, and water): > 100000 µg/mL
Compound: Cc1cnc(Nc2ccc(OCCN3CCCC3)cc2)nc1Nc1cccc(S(=O)(=O)NC(C)(C)C)c1 [Form A]

form change during DVS [3]: transform into Form B
Compound: Cc1cnc(Nc2ccc(OCCN3CCCC3)cc2)nc1Nc1cccc(S(=O)(=O)NC(C)(C)C)c1 [Form H]

physical stability of the solvate [4]: efflorescent solvate
Compound: Cc1cnc(Nc2ccc(OCCN3CCCC3)cc2)nc1Nc1cccc(S(=O)(=O)NC(C)(C)C)c1 [Form I]
